Here are results for 8 substances from US9783576B2, “Compositions and methods for targeted endometriosis treatment” (Sanford-Burnham Medical Research Institute, priority 2013, dated 2017).

“Also recorded” adds a separate entry of the source. Like-named read-outs stand apart in the source and are kept apart here. Where no end group is shown, it is not given here. The star is where a group is joined. FITC = O=C1OC2(c3ccc(O)cc3Oc3cc(O)ccc32)c2ccc(NC(=S)*)cc21

The test system of series [1] is Ishikawa cells. As to the kind of experiment: Fluorescence microscopy binding to live cells. The series is classed as cell-based, human. To be noted: for fluorescence/binding of Qdot-conjugated peptide on Ishikawa cells: 100 nM. As for the experimental part:
(§1) Ishikawa cells and A431 cells were grown on glass coverslips in 3.5 cm tissue culture plates. Each phage clone including z13 was added to these cells, incubated at 4° C. for 15 min, washed with cold PBS, and fixed with 1% paraformaldehyde (PFA) in PBS. Phage was detected using rabbit anti-T7 antibody and FITC-conjugated goat anti-rabbit IgG antibody. After washing three times with PBS, cells were fixed with 1% paraformaldehyde in PBS and inspected under a Zeiss Axioplan fluorescence microscope. Ishikawa cells grown on glass coverslips were incubated in medium containing FITC-z13 peptide (1 μg/ml) at 37° C. for 15 min. After washing with PBS, cells were fixed with 1% PFA in PBS, and inspected under the fluorescence microscope. Qdot-encapsulated and C16-z13 peptide coated liposomes were prepared as described above. Ishikawa cells were incubated with these liposomes at 37° C. for 15 min, washed with PBS, fixed with 1% PFA, and inspected under the fluorescence microscope. Qdot605-conjugated peptide, Qdot-cys-z13, or control peptide, Qdot-cys-m2, was added to the culture at 100 nM and left at 37° C. for 15 min.
(§2) Ishikawa cells and A431 cells were grown on glass coverslips in 3.5-cm tissue culture plates. Ishikawa cells grown on glass coverslips were incubated in medium containing FITC-z13 peptide (1 μg/ml) at 37° C. for 15 min. After washes with PBS, cells were fixed with 1% PFA in PBS and inspected under a fluorescence microscope. Qdot-cys-z13 was prepared by conjugating cys-z13 to Qdot nanoparticles (Qdot antibody conjugation kit, Quantum Dot, Hayward, Calif.) in accordance with the manufacturer's protocol. Cells were inspected under a Zeiss Axioplan fluorescence microscope.

The test system of series [2] is CNGB3-expressing HEK293T cells. As to the kind of experiment: Cell viability assay (ATP, CellTiter Glo) in CNGB3-expressing cells. To be noted: 37° C. 1 hour, single peptide. The series is classed as cell-based. As for the experimental part: FIG. 5 is a graph of luminescence of live cells cultured in medium containing peptides on CNGB3-MYC expressing A431 cells versus peptide concentration for the four different peptide combinations: z13, dKLAK-z13, HLAH-z13, or dKLAK-z13 plus HLAH-z13. Cells were cultured in medium containing each peptide at the indicated concentrations at 37° C. for 1 hour. ATP levels were measured by CellTiter Glo (Promega). Lines represent, in order from top to bottom: z13, dKLAK-z13, HLAH-z13, and dKLAK-z13 plus HLAH-z13.
Cytotoxic activity of dKLAK-z13 was then assessed in the presence of HLAH-z13 using a cell viability assay (FIG. 5). When CNGB3-expressing HEK293T cells were cultured in medium containing z13, dKLAK-z13, or HLAH-z13 at 37° C. for 1 hour, cell viability was not affected except at high concentration of dKLAK-z13 (at 200 μg/ml) or HLAH-z13 (at 50 μg/ml). […] For this experiment, cells were cultured at 37° C. for 20 hours in medium containing no peptide; z13 (100 μg/ml); dKLAK (100 μg/ml); dKLAK-z13 (100 μg/ml); HLAH-z13 (25 μg/ml); or dKLAK-z13 (100 μg/ml) plus HLAH-z13 (25 μg/ml).
In general terms: In ATP-based viability assays light output follows the ATP content of the culture.

Series [3] relates to CNGB3-positive A431 cells. As to the kind of experiment: Cell viability assay measuring ATP with KLA-HLA hybrid z13 peptides. The series is classed as cell-based, human. The following applies: 37° C. 6 hours, ATP by CellTiter Glo (FIG. 8). The procedure:
FIG. 8 is a graph of luminescence versus peptide concentration in μg/ml. […] Cells were cultured in medium containing each peptide at indicated concentrations at 37° C. for 6 hours. ATP levels were measured by CellTiter Glo (Promega).
(§3) The effect of these peptides was tested using CNGB3-positive A431 cells, which was generated by transfecting A431 cells with CNGB3-Myc gene driving lenti viral vector. […] The assays used detected no difference between these two peptides. The TUNEL assay was of CNGB3-MYC expressing A431 cells after culturing in medium containing KLA-HLA-z13 for 24 hours.

Series [4] addresses T1, CNGB3 (Homo sapiens, UniProt Q9NQW8).
T1 construct: tissue Folio Biosciences; Imgenex; host or cells: human endometriosis tissue sections, normal uterine endometrium and normal tissue microarrays, peritoneum
T1 sequence (Q9NQW8 1-809 C234W): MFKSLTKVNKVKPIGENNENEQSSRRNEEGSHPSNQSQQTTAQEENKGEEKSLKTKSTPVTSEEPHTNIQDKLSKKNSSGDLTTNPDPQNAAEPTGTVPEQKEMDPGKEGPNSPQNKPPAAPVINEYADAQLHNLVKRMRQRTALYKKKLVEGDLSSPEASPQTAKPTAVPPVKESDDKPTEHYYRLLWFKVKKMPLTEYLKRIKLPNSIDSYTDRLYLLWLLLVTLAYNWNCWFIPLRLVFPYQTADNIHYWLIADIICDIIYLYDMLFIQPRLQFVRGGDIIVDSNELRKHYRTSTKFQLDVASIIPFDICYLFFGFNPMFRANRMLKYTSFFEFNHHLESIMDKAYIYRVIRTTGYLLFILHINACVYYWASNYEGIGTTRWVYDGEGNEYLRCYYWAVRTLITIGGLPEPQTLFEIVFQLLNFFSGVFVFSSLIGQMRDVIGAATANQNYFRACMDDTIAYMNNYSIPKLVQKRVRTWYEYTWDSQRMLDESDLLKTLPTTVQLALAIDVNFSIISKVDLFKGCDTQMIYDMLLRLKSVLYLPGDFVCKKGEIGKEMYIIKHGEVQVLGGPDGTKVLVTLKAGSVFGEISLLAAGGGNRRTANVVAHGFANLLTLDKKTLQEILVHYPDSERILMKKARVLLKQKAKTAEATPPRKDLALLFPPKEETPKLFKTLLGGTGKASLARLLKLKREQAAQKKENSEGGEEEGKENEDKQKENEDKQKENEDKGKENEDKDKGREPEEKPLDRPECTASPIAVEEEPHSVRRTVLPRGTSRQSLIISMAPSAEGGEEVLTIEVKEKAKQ
As to the kind of experiment: FITC-z13 binding to HeLa cells transfected with CNGB3-MYC. The series is classed as cell-based. To be noted: 5 μg/ml, 37° C. 15 min. The source says: (§4) To assess binding of FITC-z13 to CNGB3, HeLa cells were transfected with a mammalian expression vector encoding a CNGB3-MYC fusion protein or with control empty vector. Fluorescence micrographs were made of HeLa cells transfected by control vector or with an expression vector encoding CNGB3-MYC.
(§5) CNGB3 cDNA was kindly provided by Dr. Hisao Ueyama, Department of Ophthalomology, Shiga University of Medical Science, Japan. cDNA encoding full-length CNGB3 was excised by HindIII and BsrGI and ligated into the HindIII and Asp718I sites of pcDNA3.1/myc-His-B vector (Invitrogen). HeLa cells were transfected with this vector, and expression of CNGB3-MYC/His fusion protein was determined by immunohistochemistry with an anti-MYC antibody and the anti-CNGB3 antibody (clone 3B2) described above. To test binding of z13 peptide to CNGB3, FITC-z13 was added (5 μg/ml) to the medium of HeLa cells transfected by the above-described vector and incubated at 37° C. for 15 min. Cells were washed with PBS, fixed with 4% PFA in PBS, and observed under a fluorescence microscope.

Series [5] deals with T2, CNGB3 (Homo sapiens, UniProt Q9NQW8, C234W).
T2 construct: tissue Folio Biosciences; Imgenex; host or cells: human endometriosis tissue sections, normal uterine endometrium and normal tissue microarrays, peritoneum
T2 sequence (Q9NQW8 1-809 C234W): T1 sequence (Q9NQW8 1-809 C234W)
Described as above. The series is classed as cell-based. To be noted: control empty vector.
Excerpt: as §4, §5

The test system of series [6] is A431 cells. Put plainly: Fluorescence microscopy binding to control cells. The series is classed as cell-based, human. As for the experimental part: as §1, §2
The subject of series [7] is CNGB3-Myc cDNA-transfected HEK293T cells. As to the kind of experiment: Apoptosis (TUNEL) of CNGB3-Myc transfected HEK293T cells. The following applies: peptide alone added to culture medium. Format: cell-based. The source says:
(§6) It was realized that this lack of effect could be due to the fact that receptor-bound dKLAK-z13 localizes to the luminal side of endosomes, a prediction supported by the endosome-like pattern of fluorescent z13. To release dKLAK-z13 from the endosomes to the cytoplasm, an endosome-escaping 18-mer peptide HLAHLAHHLAHLAHHLAH (SEQ ID NO:38; here abbreviated as HLAH) was devised by replacing lysines in KLAKLAK (SEQ ID NO:39) with histidines, to provide histidine-rich sequences capable of destabilizing endosome membranes at acidic pH (Midoux et al., 2002; Pichon et al., 2001). […] For this experiment, biotin-z13 was bound to CNGB3-MYC expressing HEK293T cells at 37° C. for 30 min with or without HLAH-z13. Cells were stained by Alexa 488-conjugated avidin followed by DAPI nuclear staining.
Each peptide was dissolved in dimethylsulfoxide at 100 μg/μl. Each peptide was added to the medium of cells, and the cells were cultured at 37° C. for 20 hours. Apoptosis of CNGB3-Myc cDNA-transfected HEK293T cells was determined by TUNEL assay using the ApopTag immunoperoxidase kit (Chemicon, Temecula, Calif.).

The subject of series [8] is CNGB3-MYC expressing HEK293T cells. Put plainly: Endosome escape of biotin-z13 in CNGB3-MYC expressing HEK293T cells. Format: cell-based. To be noted: 37° C. 30 min.
Excerpt: as §6

Series [9] concerns CNGB3-MYC expressing A431 cells. As to the kind of experiment: TUNEL assay with KLA-HLA hybrid z13 peptides. The series is classed as cell-based, human. The following applies: 24 hours in medium containing peptide. The procedure: as §3
Series [10] relates to mammalian cell. To be noted: not coupled to a targeting domain; cited from earlier work.

For the substance VRRADNRPG [z13], in series [1] (punctuate cytoplasmic staining pattern in micrographs), the “cellular localization of z13 in Ishikawa cells” value is “internalized to endosomes”. Moreover, the cell viability entry in [2] is recorded as “not affected”.
As to “HLAHLAHHLAHLAHKLAKLAKKLAKLAKVRRADNRPG [HLA-KLA-z13]”, in series [3], the “apoptosis / loss of viability of CNGB3-positive A431 cells” value is “induced apoptosis”.
In the case of “FITC-z13: synthetic fluorescence-tagged z13 peptide whose amino-terminus was conjugated ({FITC}-VRRADNRPG)”, the “binding to CNGB3-MYC-expressing HeLa cells” value in series [4] is on record as “bound to sites marked by MYC-epitope expression”. Besides, the “binding to vector-transfected control HeLa cells” value in series [5] is listed as “did not bind”. Besides, the “binding of FITC-tagged z13 peptide to Ishikawa cells” value in series [1] (1 μg/ml, 37° C. 15 min) is recorded as “bound”. In addition, the figures for the “binding of FITC-tagged z13 peptide to A431 cells” value in series [6] and in series [6] (listed as z13 peptide with an N-terminal FITC-tag) were “did not show fluorescence” and “not”, respectively.
For KLAKLAKKLAKLAKKLAKVRRADNRPG [dKLAK-z13], the “induction of apoptosis in CNGB3-expressing cells” value in series [7] is “apoptosis was not induced; also recorded: did not induce apoptosis”. Besides, the “high concentration at which cell viability was affected (otherwise not affected)” value in series [2] worked out at 200 µg/mL.
As to “HLAHLAHHLAHLAHHLAHVRRADNRPG (HLAHLAHHLAHLAHHLAHVRRAXNXPG; (23)..(23) Xaa can be any naturally occurring amino acid; (25)..(25) Xaa can be any naturally occurring amino acid) [HLAH-z13]”, in series [8], the “endosome-escaping activity (release of biotin-z13 from endosomes to cytoplasm)” value is “promotes endosome-escaping activity”. Besides, the “high concentration at which cell viability was affected (otherwise not affected)” value in series [2] turned out to be 50 µg/mL.
For “KLAKLAKKLAKLAKHLAHLAHHLAHLAHVRRADNRPG [KLA-HLA-z13]”, the “apoptosis / loss of viability of CNGB3-positive A431 cells” value in series [3] is on record as “induced apoptosis”. Besides, in series [9], the “frequency of TUNEL-positive cells” value is “dose-dependent increase in the frequency of TUNEL-positive cells”.
In the case of “(KLAKLAK)2 (KLAKLAKKLAKLAK) [mitochondriotoxic pro-apoptotic peptide (PAP)]”, the “mammalian cell cytotoxicity of the peptide by itself” value in series [10] is “low mammalian cell cytotoxicity”.
For “Qdot-cys-z13: synthetic cys-z13 peptide CVRRADNRPG conjugated to fluorescent nanocrystal Qdot605 (also: conjugated to Qdot605 nanocrystal)”, the “fluorescence/binding of Qdot-conjugated peptide on Ishikawa cells” value was “strong fluorescence” in series [1] (37° C. 15 min) and “bound” in series [1] (37° C. 15 min, listed as Qdot-z13). For the same substance, the “binding of Qdot-conjugated peptide to A431 cells” value in [6] was “not”.
